In ChEMBL document CHEMBL3638995, “Disubstituted 3,4-diamino-3-cyclobutene-1,2-dione compounds for use in the treatment of chemokine-mediated pathologies” (2015) one finds IC50 data, which are given here for 3 molecules.

Experiment [1] deals with T1, C-X-C chemokine receptor type 2 (Homo sapiens, UniProt P25025).
T1 sequence (P25025 whole entry): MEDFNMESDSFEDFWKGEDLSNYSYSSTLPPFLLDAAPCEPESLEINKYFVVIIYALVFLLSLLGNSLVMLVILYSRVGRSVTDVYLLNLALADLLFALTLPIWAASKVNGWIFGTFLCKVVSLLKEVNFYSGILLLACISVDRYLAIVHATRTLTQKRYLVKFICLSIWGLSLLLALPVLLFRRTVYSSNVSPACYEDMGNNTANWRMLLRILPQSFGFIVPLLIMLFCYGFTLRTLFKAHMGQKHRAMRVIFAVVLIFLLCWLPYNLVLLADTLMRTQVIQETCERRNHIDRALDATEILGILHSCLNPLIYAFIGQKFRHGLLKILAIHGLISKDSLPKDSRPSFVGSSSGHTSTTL
Put plainly: (§1) Assay Drug Dev Technol. 2007 February; 5(1); 137-44). The format is cell-based.

The target in experiment [2] is T2, C-X-C chemokine receptor type 1 (Homo sapiens, UniProt P25024).
T2 sequence (P25024 whole entry): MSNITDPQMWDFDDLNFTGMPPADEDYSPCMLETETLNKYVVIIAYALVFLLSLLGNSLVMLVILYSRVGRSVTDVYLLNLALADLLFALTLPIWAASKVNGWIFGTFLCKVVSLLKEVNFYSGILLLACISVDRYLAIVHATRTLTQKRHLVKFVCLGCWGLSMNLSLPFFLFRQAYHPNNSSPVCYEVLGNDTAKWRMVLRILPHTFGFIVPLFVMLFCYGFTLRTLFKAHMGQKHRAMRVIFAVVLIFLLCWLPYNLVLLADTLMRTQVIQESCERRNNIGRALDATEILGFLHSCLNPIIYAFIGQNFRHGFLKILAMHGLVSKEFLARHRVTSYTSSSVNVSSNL
The description is as §1. The format is cell-based.

Each structure is given as a SMILES string. pIC50: −log10 of the molar value.

As usually defined, the pIC50 is the IC50 on a negative log10 scale, so that one unit is a factor of ten. Low values mean a large IC50, high ones a small IC50. Take `Cc1ccc(C(Nc2c(Nc3cccc(C(=O)N(C)C)c3O)c(=O)c2=O)C2(C)COC2)s1` (stereo unspecified): the negative logarithm of the IC50 (pIC50) in experiment [1] was 6.84; in experiment [2], 5.52.

On to `Cc1ccc([C@H](Nc2c(Nc3cccc(C(=O)N(C)C)c3O)c(=O)c2=O)C2(C)COC2)o1`, for which the pIC50 in experiment [1] is 7.14; in experiment [2], 6.51.

As for `Cc1ccc([C@H](Nc2c(Nc3csc(C(=O)N(C)C)c3O)c(=O)c2=O)C2(C)COC2)o1`, the negative-log IC50 (pIC50) in experiment [1] was 7.02; in experiment [2], 5.41.
